Laboratory results as given in patent publication US20190292243A1, “PEPTIDES AND METHODS OF USE THEREOF” (Fred Hutchinson Cancer Research Center, priority 2016, published 2019).
Square brackets hold non-standard residues; d marks the D form. Ends that are not written are not given here. Peptide text beside a SMILES is read from it. * marks the point of attachment. Dolaproine = CO[C@@H]([C@@H]1CCCN1)[C@@H](C)C(=O)O; Dil = CC[C@H](C)[C@H](NC)[C@@H](CC(=O)O)OC; X1 = C[C@@H](N*)[C@@H](O)c1ccccc1; NMeV = CN[C@H](C(=O)O)C(C)C

How the values were obtained:
[1] = tested on: A375 cells and RH28 cells; experiment: Modulation of SEQ ID NO: 15-A accumulation in cells by small molecule drugs (flow cytometry median fluorescence); type: cell-based; details: drug at increasing concentrations with 1 μM SEQ ID NO: 15-A
Source text: This example illustrates the small molecule drug enhancing properties of peptides of this disclosure. Peptides of this disclosure were useful in enhancing or dampening the potency of several small molecule drugs. […] The Approved Oncology Drugs Plated Set VII was obtained from NCI and included histone deacetylase (HDAC) inhibitors such as vorinostat, belinostat, panobinostat, and […]. The tested set also included tyrosine kinase inhibitors, protease inhibitors, and anthracyclines. A375 cells and RH28 cells were plated at 10,000 cells per well in 96 well plates and allowed to adhere overnight. […] Cells were washed three times with PBS-FBS and once in PBS. Cells were trypsinized, resuspended in PBS-FBS-DAPI, and assessed for average fluorescence as compared to untreated cells by flow cytometry analysis. […] Cells were washed three times with PBS-FBS and once in PBS. Cells were trypsinized, resuspended in PBS-FBS-DAPI, and assessed for average fluorescence as compared to untreated cells by flow cytometry analysis.

[2] = tested on: Caspase-3 activation in Ramos lymphoma tumor, liver, kidney; experiment: Caspase-3 staining of tissues after MMAE or peptide-MMAE conjugate; type: in vivo, female Harlan athymic mice; details: 7.5 nmol, 48 hours after single systemic administration
Description: This example illustrates whole-body autoradiography and Caspase-3 staining after administration of peptide conjugated to MMAE. MMAE was conjugated to a peptide of SEQ ID NO: 26 with a Val-Cit-PABC linker to produce a SEQ ID NO: 26-B peptide conjugate (SEQ ID NO: 26-B). 7.5 nmol MMAE or 7.5 nmol SEQ ID NO: 26-B were administered to RH-28 tumor-bearing or Ramos lymphoma tumor-bearing female Harlan athymic mice and allowed to freely circulate for 24 or 48 hours.

[3] = tested on: RH28 flank tumors; experiment: Chirality in tumor homing, RH28 flank tumors (ex vivo IVIS); set-up: species or system mice; details: AF647 conjugates, 10 nmol per mouse intravenously, one hour
Description: This example illustrates the role of chirality in tumor homing peptides of this disclosure. Each L-enantiomer in a peptide of SEQ ID NO: 15 was replaced with the corresponding D-enantiomer (SEQ ID NO: 36). Both peptides were conjugated to AlexaFluor 647 and tumor homing, and homing to the liver and kidneys was assessed by fluorescence quantification. […] Peptide-AF647 conjugates were administered intravenously to mice bearing RH28 flank tumors at 10 nmol per mouse. Mice were euthanized one hour post-administration, organs were necropsied, and tissues were analyzed ex vivo using an IVIS imager. P-values were determined using an unpaired Student's t-test.

[4] = tested on: RH28 cell line; experiment: Relative viability of RH28 cells; type: cell-based; details: various doses
Description: (§1) This example describes the viability different cell lines to MMAE or MMAE-peptide conjugates and toxicity induced by delivery of MMAE to cells by a peptide conjugate of the disclosure. A peptide of SEQ ID NO: 26 was expressed recombinantly or chemically synthesized and then conjugated to a therapeutic agent, MMAE, by a Val-Cit-PAB linker, producing SEQ ID NO: 26-B peptide conjugate (SEQ ID NO: 26-B). HeLa cells were treated in vitro with MMAE, SEQ ID NO: 26 peptide, or SEQ ID NO: 26-B, and viability was quantified. Ewing's Sarcoma cell lines including the RH28 cell line, A673 cell line, and A204 cell line, were treated in vitro with MMAE or SEQ ID NO: 26-B for 48-72 hours and viability of cells was quantified.

[5] = tested on: A204 cell line; experiment: Relative viability of A204 cells; type: cell-based; details: 48 hours after administration, various doses
Description: as §1

[6] = tested on: A673 cell line; experiment: Relative viability of A673 cells; type: cell-based; details: various doses
Description: as §1

[7] = tested on: RH-28 tumor; experiment: Whole-body autoradiography after peptide-MMAE conjugate administration, RH-28 tumor; type: in vivo, female Harlan athymic mice; details: 14 nmol, 24 hours after administration
Source text: This example illustrates whole-body autoradiography and Caspase-3 staining after administration of peptide conjugated to MMAE. MMAE was conjugated to a peptide of SEQ ID NO: 26 with a Val-Cit-PABC linker to produce a SEQ ID NO: 26-B peptide conjugate (SEQ ID NO: 26-B). […]
At the end of the dosing period, mice were frozen in a hexane/dry ice bath and then frozen in a block of carboxymethylcellulose. […] Thin, frozen sections of mice were obtained with a microtome, allowed to desiccate in a freezer, and exposed to phosphoimager plates for about ten days.
These plates were developed, and the signal (densitometry) from each organ was normalized to the signal found in the heart blood of each mouse. A signal in tissue darker than the signal expected from blood in that tissue indicates peptide accumulation in a region, tissue, structure or cell.

[8] = 72 hours of continuous treatment

Q: For `Cn1c(=O)n(-c2ccc(C(C)(C)C#N)cc2)c2c3cc(-c4cnc5ccccc5c4)ccc3ncc21` [BEZ235], which “modulation of accumulation of SEQ ID NO: 15-A in tumor cells (median fluorescence vs untreated)” value [1] is on record?
A: modulate the accumulation of peptides of this disclosure to tumor cells

Q: How did the “Caspase-3 staining in tumor, liver and kidney” value [2] turn out when `CC[C@H](C)[C@@H]([C@@H](CC(=O)N1CCC[C@H]1[C@H](OC)[C@@H](C)C(=O)N[C@H](C)[C@@H](O)c1ccccc1)OC)N(C)C(=O)[C@@H](NC(=O)[C@@H](NC)C(C)C)C(C)C` [MMAE, monomethyl auristatin E] (H-[NMeV]V[Dil][Dolaproine]-X1) was run?
A: induction of apoptosis

Q: For `Nc1ccn([C@@H]2O[C@H](CO)[C@@H](O)[C@@H]2O)c(=O)n1` [cytarabine], which “modulation of accumulation of SEQ ID NO: 15-A in tumor cells (median fluorescence vs untreated)” value [1] is on record?
A: modulate the accumulation of peptides of this disclosure to tumor cells

Q: How did the “modulation of accumulation of SEQ ID NO: 15-A in tumor cells (median fluorescence vs untreated)” value [1] turn out when `O=C(CCCCCCC(=O)Nc1ccccc1)NO` [vorinostat] was run?
A: modulate the accumulation of peptides of this disclosure to tumor cells

Q: For “GSSCEPGRTFRDRCNTCRCGADGRSAACTLRACPNQ (not fully specified (some residues); ends and bridges not checked) [SEQ ID NO: 15]”, which “homing to RH28 flank tumor (average radiant efficiency fluorescence), L- vs D-amino acid peptide” value [3] is on record?
A: higher homing to flank tumor than a peptide of SEQ ID NO: 36

Q: With “SEQ ID NO: 15-B (GSSCEPGRTFRDRCNTCRCGADGRSAACTLRACPNQ; cysteine pairing not given here; also: conjugate B)” as the compound, how does the “relative viability / growth of RH28 cells” value ([4]; 48 hours after administration) read?
A: inhibited growth of all three cell lines

Q: And the “relative viability / growth of A204 cells” value [5]?
A: inhibited growth of all three cell lines

Q: And the “relative viability / growth of A673 cells” value ([6]; 48 hours after administration)?
A: inhibited growth of all three cell lines

Q: What does the source list for “SEQ ID NO: 26-B (GSSCEPGRTFRDRCNTCKCGADGRSAACTLRACPNQ; cysteine pairing not given here; also: conjugate B)”?
A: relative viability / growth of RH28 cells [4, 8]: inhibited growth of both cell lines; relative viability / growth of A673 cells [6, 8]: inhibited growth of both cell lines

Q: For “SEQ ID NO: 26-Br (GSSCEPGRTFRDRCNTCKCGADGRSAACTLRACPNQ; cysteine pairing not given here; also: conjugate Br)”, which “14C signal distribution in tissues (autoradiography)” value [7] is on record?
A: accumulation in the RH-28 tumor

Q: How did the “modulation of accumulation of SEQ ID NO: 15-A in tumor cells (median fluorescence vs untreated)” value [1] turn out when bleomycin was run?
A: modulate the accumulation of peptides of this disclosure to tumor cells
